Here are results for two compounds from patent US4440943A, “Phenoxiodinin-5-ium antimicrobial compounds” (The Dow Chemical Company, priority 1982, dated 1984).

Holding throughout (format): cell-based
Assay [1] deals with Bacillus subtilis. In words: Agar dilution MIC vs Bacillus subtilis (trypticase soy agar). The settings on record: first screened at 500 ppm. The method, then:
(§1) A tube containing 30 ml of trypticase soy agar was melted and warmed to 45° C. The test compound was added to the tube at a concentration of 0.05% (500 ppm). The mixture was stirred and poured into plates to harden. When hardened, the plates were inoculated with various aerobic and anaerobic organisms. The aerobic plates were incubated at 37° C. for 24 hours and then read for bacterial growth. The same plates were again incubated at 30° C. for an additional 48 hours at which point they were checked for yeast and fungal growth. The anaerobic plates were incubated at 37° C. in an anaerobic chamber and read at 48 hours.
(§2) After the initial readings, compounds showing sufficient activity were re-tested at various concentrations to determine the minimum inhibitory concentration (MIC) of the compounds of the invention against various bacteria and fungi.

Assay [2] relates to Candida pelliculosa. In words: Agar dilution MIC vs Candida pelliculosa (trypticase soy agar). The following applies: first screened at 500 ppm. The method, then: as §1, §2
In assay [3] the test system is Escherichia coli. Briefly: Agar dilution MIC vs Escherichia coli (trypticase soy agar). The following applies: first screened at 500 ppm. The procedure: as §1, §2
The subject of assay [4] is Proteus mirabilis. In words: Agar dilution MIC vs Proteus mirabilis (trypticase soy agar). The settings on record: first screened at 500 ppm. The method, then:
as §1, §2

Assay [5] relates to Streptococcus mutans. In words: Acid inhibition in Streptococcus mutans (Trypticase-yeast medium with sucrose, NaOH titration). The following applies: S. mutans, 48 hours at 37° C. The method, then:
In still another operation, the acid inhibiting property of these compounds was tested against the known acid producing organism, Streptococcus mutans. Test tubes containing Trypticase-yeast medium with sucrose were inoculated with S. mutans and incubated for 48 hours at 37° C. The tubes were then titrated with 0.1 N sodium hydroxide.

Assay [6] relates to Aspergillus fumigatus. In words: Agar dilution MIC vs Aspergillus fumigatus (trypticase soy agar). The settings on record: first screened at 500 ppm. The method, then:
as §1, §2

Assay [7] relates to Aspergillus niger. In words: Agar dilution MIC vs Aspergillus niger (trypticase soy agar). The following applies: first screened at 500 ppm. The method, then: as §1, §2
The subject of assay [8] is Staphylococcus aureus. Briefly: Agar dilution MIC vs Staphylococcus aureus (trypticase soy agar). The settings on record: first screened at 500 ppm. The procedure: as §1, §2
The test system of assay [9] is Streptococcus mutans (ATCC 10449). Briefly: MIC and MBC vs Streptococcus mutans, Todd Hewitt broth, standard dilution. The method, then:
In another procedure, the minimum inhibitory concentration (MIC) and minimum bactericidal concentration (MBC) were determined in ppm for various compounds of the invention against the bacteria, Streptococcus mutans (ATCC 10449). The testing was performed using Todd Hewitt broth and standard dilution techniques.

The test system of assay [10] is Streptococcus mutans. Briefly: Agar dilution MIC vs Streptococcus mutans (trypticase soy agar). The following applies: first screened at 500 ppm. The procedure: as §1, §2
Assay [11] deals with Trichophyton mentagrophytes. In words: Agar dilution MIC vs Trichophyton mentagrophytes (trypticase soy agar). The following applies: first screened at 500 ppm. The procedure:
as §1, §2

The test system of assay [12] is Salmonella typhosa. Briefly: Agar dilution MIC vs Salmonella typhosa (trypticase soy agar). The method, then:
as §1, §2

The mark [13] stands for this setting: Streptococcus mutans ATCC 10449, Todd Hewitt broth.

Like-named read-outs stand apart in the source and are kept apart here.

For the compound `COC(=O)c1ccc2c(c1)[I+]c1cc(C(=O)O)ccc1O2` [3(a), 3-Carboxy-7-(methoxycarbonyl)phenoxiodinin-5-ium chloride monohydrate], the MIC in assay [1] (read-out: Minimum inhibitory concentration, Bs) was found to be 1 µg/mL; in [2] (Hansenula anomala, read-out: Minimum inhibitory concentration, Cp), 500 µg/mL; in assay [3] (read-out: Minimum inhibitory concentration, Ec) it was 10 µg/mL; in [4] (read-out: Minimum inhibitory concentration, Pm), 10 µg/mL; in assay [6] (read-out: Minimum inhibitory concentration, Af) it was 50 µg/mL; in [7] (read-out: Minimum inhibitory concentration, An), 500 µg/mL. Also, the MIC in [9] (Streptococcus mutans, ATCC10449, Streptococcus mutans ATCC 10449, Todd Hewitt broth, read-out: MIC) came to 2 µg/mL; in assay [12] (Salmonella enterica, TYPHOSA, read-out: Minimum inhibitory concentration, St, Salmonella typhosa, first screened at 500 ppm), 10 µg/mL. In addition, the minimal effective concentration in assay [5] (Streptococcus mutans, 48 h, read-out: Acid Inhibition (minimum concentration which prevented acid formation)) came to 1 µg/mL. In addition, the “Minimum inhibitory concentration, Sa” value in [8] (monohydrate) is on record as 5 PPM. The MBC in [9] (Streptococcus mutans, ATCC10449, Streptococcus mutans ATCC 10449, Todd Hewitt broth, read-out: MBC (minimum bactericidal concentration)) came out at 2 µg/mL. For the same compound, in assay [10] (monohydrate), the “Minimum inhibitory concentration, Sm” value came out at 500 PPM. In addition, the “Minimum inhibitory concentration, Tm” value in assay [11] (monohydrate) is recorded as 500 PPM.

Regarding `COC(=O)c1ccc2c(c1)[I+]c1cc(C(=O)O)ccc1O2` [3(c)], the “Minimum inhibitory concentration, Bs” value in assay [1] stood at 0.5 PPM. Moreover, the “Minimum inhibitory concentration, Cp” value in assay [2] stood at 500 PPM. In addition, the “Minimum inhibitory concentration, Ec” value in assay [3] is on record as 5 PPM. Further, the “Minimum inhibitory concentration, Pm” value in [4] amounted to 5 PPM. Further, in assay [5], the “Acid Inhibition (minimum concentration which prevented acid formation)” value is on record as 1.0 ppm. In addition, the “Minimum inhibitory concentration, Af” value in assay [6] stood at 100 PPM. In addition, the “Minimum inhibitory concentration, An” value in assay [7] came to 500 PPM. Also, the “Minimum inhibitory concentration, Sa” value in [8] stood at 1.0 PPM. Also, in assay [9] (setting [13]), the “MBC (minimum bactericidal concentration)” value worked out at 2.0 ppm and the MIC was determined as 1.0 ppm. Further, the “Minimum inhibitory concentration, Sm” value in assay [10] is 500 PPM. The “Minimum inhibitory concentration, Tm” value in [11] is 100 PPM. Moreover, the “Minimum inhibitory concentration, St” value in assay [12] (Salmonella typhosa, first screened at 500 ppm) is 5 PPM.
